Source: US8937154B2, “Stabilized therapeutic small helical antiviral peptides” (priority 2006, dated 2015)
Where a SMILES comes first, the peptide text is derived from it. Bridges are numbered along the chain shown (N, C = ends). [ ]: non-standard residue; d: D form. The star is where a group is joined. FITC = O=C1OC2(c3ccc(O)cc3Oc3cc(O)ccc32)c2ccc(NC(=S)*)cc21; R8 = C=CCCCCCC[C@@](C)(N)C(=O)O; S5 = C=CCCC[C@](C)(N)C(=O)O; βAla = NCCC(=O)O

What was measured:
HIV-IIIB = test: Viral re-infection assay: infectivity of virions released by treated HIV-1 infected MT-2 cells; type: cell-based; conditions: for infectivity respect to the control: about 7 μM
Method: The infectivity potential of the virions released by HIV-1 infected MT-2 cells treated with different concentrations of small stapled peptides. […] Control cells were untreated or treated with 1 ug/ml of AMD3100 (CXCR-4 receptor inhibitor). Following overnight incubation the medium was completely removed and replaced with fresh medium. On the fourth day post-infection the supernatants were collected. One aliquot of each sample was mixed 1:1 with a solution of 5% Triton X-100 for p24 quantification, and stored at 4° C., another aliquot was immediately frozen at −80° C. and used to compare the infectivity of the viral particles released by treated cells to the viral particles released by untreated cells. Following p24 quantification by sandwich-ELISA MT-2 cells were infected with viral samples normalized for the p24 content to calculate the TCID50. Following overnight incubation ¾ of the medium containing the inoculum was replaced with fresh medium. On the fourth day post infection supernatants were collected for p24 quantification and the TCID50 was calculated by the Spearman-Karber statistical method.
Therefore, to infect MT-2 cells we used the maximum quantities of supernatants possible.

N-terminal CA (N-CA) = N-terminal CA (N-CA) (Human immunodeficiency virus type 1 group M subtype B, UniProt P04591); conditions: read-out: affinity (Kd) to N-terminal CA (N-CA); cited from earlier work
HIV-1 IIIB [1] = type: cell-based
Method: The inhibitory activity of the constrained peptide described in Example 1 on infection by laboratory-adapted HIV-1 strains was determined as described in Jiang et al. (1991).

HIV-1 IIIB [2] = test: Western blot of p24 and p55 after treatment of HIV-1 IIIB infected MT-2 cells; type: cell-based; conditions: anti-p24 mAb, graded concentrations, vs positive untreated control
Method: Control cells were uninfected MT-2 or infected and untreated MT-2. Following overnight incubation the culture supernatant was completely removed and replaced with fresh medium. On the fourth day post-infection cells and virus supernatants were harvested. The supernatants were filtered and ultra-centrifuged through a 20% sucrose cushion for 2 hr at 27,000 rpm with a SW28 rotor to concentrate the viral particles. Viral pellets were slowly re-suspended and lysed. Cells were collected and processed for protein extraction. […] Proteins were then visualized by Western Blot and immuno-detected with HIV-1 anti-p24 gag mAb.
Same amounts of viral and cellular proteins were immunodetected with an anti-p24 mAb.

[3] = Circular dichroism, secondary structure in solution; type: physicochemical; conditions: 25° C., 1×PBS, 1-20% acetonitrile, 100 μM peptide
Method: We used circular dichroism (CD) to characterize the secondary structure of NYAD-1 and CAI in the uncomplexed state in solution. CD spectra were obtained on a Jasco J-715 Spectropolarimeter (Jasco Inc.) at 20° C. using the standard measurement parameters in Tris-HCl buffer (20 mM Tris, pH 8.0) in the presence of 1-15% (v/v) acetonitrile at a final concentration of 125-500 μM. In all the samples, the final concentrations of peptides and salt were always the same, and the spectra were corrected by subtracting the CD spectra of the appropriate reference solvent. Percent α-helix was calculated from molar ellipticity value at 222 nm.
The CD spectra were measured at 25° C. in 1×PBS in the presence of 1-20% (v/v) acetonitrile at a final concentration of peptide of 100 μM.
We used CD spectroscopy to determine the secondary structure characteristics of the stapled peptide NYAD-36. The corresponding linear peptide, NYAD-41, was used as control.

CTDM184A/W185A = CTDM184A/W185A (Human immunodeficiency virus type 1 group M subtype B, UniProt P04591, M317A/W316A); test: Isothermal titration calorimetry; set-up: species or system HIV-1; conditions: ITC, 25 mM sodium phosphate buffer (pH 7.3), single-binding model
Method: In a typical experiment, the ITC injection syringe was loaded with 625 μM CTDM184A/W185A protein dissolved in the dialysis buffer. […] Typically titrations consisted of 27 injections of 10 μl into the calorimetric cell, with 240-s equilibration between injections. The thermodynamic parameters were obtained and data were analysed using MicroCal Origin 7.0 software.

[4] = test system: HIV-1 gag-mStrawberry fusion protein; test: Direct colocalization with gag by confocal microscopy; type: cell-based; conditions: 293T cells transfected with pEF6A-gag-mStrawberry; near the plasma membrane
Method: A direct colocalization study was performed by transfecting 293T cells with pEF6A-gag-mStrawberry for 4 hr and then washing cells once with PBS. A serum-free or serum-containing medium containing FITC-conjugated peptide was added for another 20 hr culture. After three washes, the cells were examined and imaged under a Zeiss LSM510 laser scanning confocal microscope.

c1cc(CN2CCCNCCNCCCNCC2)ccc1CN1CCCNCCNCCCNCC1 [AMD3100, reference compound]
viral infectivity of particles released by treated cells (HIV-IIIB; 1 ug/ml): very little to no viral infectivity

Cc1ccc(NC(=O)NCCSCc2ccc(CN(C)C)o2)cc1Cl [CAP-1]
Kd (N-terminal CA (N-CA)): ~800 µM

CC[C@H](C)[C@H](N)C(=O)N[C@@H](CO)C(=O)N[C@@H](Cc1ccccc1)C(=O)N[C@@]1(C)CCC/C=C\CCC[C@@](C)(C(=O)N[C@@H](Cc2ccc(O)cc2)C(=O)N[C@@H](Cc2ccc(O)cc2)C(=O)NCC(=O)N[C@@H](CCCNC(=N)N)C(N)=O)NC(=O)[C@H](CC(C)C)NC(=O)[C@H](CC(C)C)NC(=O)[C@H](CCC(=O)O)NC1=O [NYAD-15] (H-ISF[S5]ELL[S5]YYGR-NH2; staple (Z) 4-8; N-terminus and C-terminus assumed)
IC50 (HIV-1 IIIB [1]): 4.86 ± 1.55 µM | p24 and p55 levels in the cellular preparation (HIV-1 IIIB [2]): dose-dependent decrease | p24 and p55 levels in the viral preparation (viral lysates) (HIV-1 IIIB [2]): dose-dependent decrease

CC[C@H](C)[C@H](N)C(=O)N[C@H](C(=O)N[C@@H](Cc1ccccc1)C(=O)N[C@@]1(C)CCC/C=C\CCC[C@@](C)(C(=O)N[C@@H](Cc2ccc(O)cc2)C(=O)N[C@@H](Cc2ccc(O)cc2)C(=O)NCC(=O)N[C@@H](CCC(=O)O)C(=O)N[C@@H](CCCCN)C(N)=O)NC(=O)[C@H](CC(C)C)NC(=O)[C@H]([C@@H](C)CC)NC(=O)[C@H](CC(=O)O)NC1=O)[C@@H](C)O [NYAD-23] (H-ITF[S5]DIL[S5]YYGEK-NH2; staple (Z) 4-8; N-terminus and C-terminus assumed)
IC50 (HIV-1 IIIB [1]): 9.1 ± 0.74 µM | p24 and p55 levels in the cellular preparation (HIV-1 IIIB [2]): dose-dependent decrease | p24 and p55 levels in the viral preparation (viral lysates) (HIV-1 IIIB [2]): dose-dependent decrease

CC[C@H](C)[C@H](N)C(=O)N[C@@H](CO)C(=O)N[C@@H](Cc1ccccc1)C(=O)N[C@@]1(C)CCC/C=C\CCC[C@@](C)(C(=O)N[C@@H](Cc2ccc(O)cc2)C(=O)N[C@@H](Cc2ccc(O)cc2)C(=O)NCC(=O)N[C@@H](CCC(=O)O)C(=O)N[C@@H](CCCCN)C(N)=O)NC(=O)[C@H](CC(C)C)NC(=O)[C@H](CC(C)C)NC(=O)[C@H](CCC(=O)O)NC1=O [NYAD-24] (H-ISF[S5]ELL[S5]YYGEK-NH2; staple (Z) 4-8; N-terminus and C-terminus assumed)
IC50 (HIV-1 IIIB [1]): 13.8 ± 3.57 µM

CC[C@H](C)[C@H](N)C(=O)N[C@H](C(=O)N[C@@H](Cc1ccccc1)C(=O)N[C@@]1(C)CCC/C=C\CCC[C@@](C)(C(=O)N[C@@H](Cc2ccc(O)cc2)C(=O)N[C@@H](Cc2ccc(O)cc2)C(=O)NCC(=O)N[C@@H](CCCNC(=N)N)C(N)=O)NC(=O)[C@H](CC(C)C)NC(=O)[C@H](Cc2c[nH]c3ccccc23)NC(=O)[C@H](CC(=O)O)NC1=O)[C@@H](C)O [NYAD-31] (H-ITF[S5]DWL[S5]YYGR-NH2; staple (Z) 4-8; N-terminus and C-terminus assumed)
IC50 (HIV-1 IIIB [1]): 13.5 ± 1.4 µM

CC[C@H](C)[C@H](N)C(=O)N[C@@H](CO)C(=O)N[C@@H](Cc1ccccc1)C(=O)N[C@]1(C)CCCCCC/C=C\CCC[C@@](C)(C(=O)N[C@@H](CCCNC(=N)N)C(N)=O)NC(=O)[C@H](Cc2ccc(O)cc2)NC(=O)[C@H](Cc2ccc(O)cc2)NC(=O)[C@H](CCC(N)=O)NC(=O)[C@H](CC(C)C)NC(=O)[C@H](Cc2c[nH]c3ccccc23)NC(=O)[C@H](CCC(=O)O)NC1=O [NYAD-33] (H-ISF[R8]EWLQYY[S5]R-NH2; staple (Z) 4-11; N-terminus and C-terminus assumed)
IC50 (HIV-1 IIIB [1]): 3.37 ± 0.06 µM | viral infectivity of particles released by treated cells (HIV-IIIB; 7 μM): very little to no viral infectivity | viral infectivity of particles released by treated cells (HIV-IIIB; 14 μM): very little to no viral infectivity | infectivity respect to the control (HIV-IIIB): 25%

CC[C@H](C)[C@H](N)C(=O)N[C@@H](CO)C(=O)N[C@@H](Cc1ccccc1)C(=O)N[C@@]1(C)CCC/C=C\CCC[C@@](C)(C(=O)N[C@@H](Cc2ccc(O)cc2)C(=O)N[C@@H](Cc2ccc(O)cc2)C(=O)NCC(=O)N[C@@H](CCCNC(=N)N)C(=O)N[C@@H](CO)C(=O)NCC(=O)N[C@@H](CO)C(N)=O)NC(=O)[C@H](CC(C)C)NC(=O)[C@H](CC(C)C)NC(=O)[C@H](CCC(=O)O)NC1=O [NYAD-34] (H-ISF[S5]ELL[S5]YYGRSGS-NH2; staple (Z) 4-8; N-terminus and C-terminus assumed)
IC50 (HIV-1 IIIB [1]): 12.7 ± 0.9 µM

CC[C@H](C)[C@H](N)C(=O)N[C@@H](CO)C(=O)N[C@@H](Cc1ccccc1)C(=O)N[C@@]1(C)CCC/C=C\CCC[C@@](C)(C(=O)N[C@@H](Cc2ccc(O)cc2)C(=O)N[C@@H](Cc2ccc(O)cc2)C(=O)NCC(=O)N[C@@H](CCC(=O)O)C(=O)N[C@@H](CO)C(=O)NCC(=O)N[C@@H](CO)C(N)=O)NC(=O)[C@H](CC(C)C)NC(=O)[C@H](CC(C)C)NC(=O)[C@H](CCC(=O)O)NC1=O [NYAD-35] (H-ISF[S5]ELL[S5]YYGESGS-NH2; staple (Z) 4-8; N-terminus and C-terminus assumed)
IC50 (HIV-1 IIIB [1]): 4.51 ± 0.14 µM

CC[C@H](C)[C@H](N)C(=O)N[C@@H](CO)C(=O)N[C@@H](Cc1ccccc1)C(=O)N[C@]1(C)CCCCCC/C=C\CCC[C@@](C)(C(=O)N[C@@H](CCC(=O)O)C(=O)N[C@@H](CO)C(=O)NCC(=O)N[C@@H](CO)C(N)=O)NC(=O)[C@H](Cc2ccc(O)cc2)NC(=O)[C@H](Cc2ccc(O)cc2)NC(=O)[C@H](CC(=O)O)NC(=O)[C@H](CC(C)C)NC(=O)[C@H](CC(C)C)NC(=O)[C@H](CCC(=O)O)NC1=O [NYAD-36] (H-ISF[R8]ELLDYY[S5]ESGS-NH2; staple (Z) 4-11)
IC50 (HIV-1 IIIB [1]): 1.5 ± 0.17 µM | secondary structure by CD [3]: α-helical structure | viral infectivity of particles released by treated cells (HIV-IIIB; 6.8 μM): very little to no viral infectivity | viral infectivity of particles released by treated cells (HIV-IIIB; 13.5 μM): very little to no viral infectivity | infectivity respect to the control (HIV-IIIB): 7.7% | p24 and p55 levels in the cellular preparation (HIV-1 IIIB [2]): the same decrease was not detected | p24 and p55 levels in the viral preparation (viral lysates) (HIV-1 IIIB [2]): dose-dependent decrease | ΔH (CTDM184A/W185A): −8.4 (±0.4) Kcal/mol | solubility: < 100 µM

CC[C@H](C)[C@H](N)C(=O)N[C@@H](CO)C(=O)N[C@@H](Cc1ccccc1)C(=O)N[C@@]1(C)CCC/C=C\CCC[C@@](C)(C(=O)N[C@@H](Cc2ccc(O)cc2)C(=O)N[C@@H](Cc2ccc(O)cc2)C(=O)NCC(=O)N[C@@H](CCC(=O)O)C(=O)N[C@@H](CO)C(=O)NCC(=O)N[C@@H](CO)C(N)=O)NC(=O)[C@H](CC(C)C)NC(=O)[C@H]([C@@H](C)CC)NC(=O)[C@H](CCC(=O)O)NC1=O [NYAD-37] (H-ISF[S5]EIL[S5]YYGESGS-NH2; staple (Z) 4-8; N-terminus and C-terminus assumed)
IC50 (HIV-1 IIIB [1]): 8 ± 0.36 µM | viral infectivity of particles released by treated cells (HIV-IIIB; 15 μM): very little to no viral infectivity | viral infectivity of particles released by treated cells (HIV-IIIB; 30 μM): very little to no viral infectivity | p24 and p55 levels in the cellular preparation (HIV-1 IIIB [2]): dose-dependent decrease | p24 and p55 levels in the viral preparation (viral lysates) (HIV-1 IIIB [2]): dose-dependent decrease

FITC-conjugated NYAD-1: NYAD-1 N-terminally derivatized with β-Ala and FITC ({FITC-βAla}-ITF[S5]DLL[S5]YYGP-NH2; staple 4-8; also: X4, X8 also described as (S)-2-(2'-pentenyl)alanine)
colocalization with gag-mStrawberry [4]: significant fraction colocalized

NYAD-41: SEQ ID NO:20, linear peptide corresponding to NYAD-36, used as control (ISFDELLDYYGESGS; Linear peptide NYAD-41)
secondary structure by CD [3]: random nature
